Patent US7150974B1, “Parathyroid hormone receptor binding method” (The General Hospital Corporation, priority 1991, dated 2006)

Legend:
Type in all cases: binding
[1] = molecular target: T1, rat bone PTH/PTHrP receptor (Rattus norvegicus, UniProt P25961, E586G); assay: Radioreceptor assay, COS cells expressing rat bone PTH/PTHrP receptor (R15B); details: COS cells expressing R15B, FIG. 13
T1 construct: expressed in transfected cells; host or cells: COS / COS-7 cells, transient, plasmid R15B (pcDNA I)
T1 sequence (P25961 27-591 E586G): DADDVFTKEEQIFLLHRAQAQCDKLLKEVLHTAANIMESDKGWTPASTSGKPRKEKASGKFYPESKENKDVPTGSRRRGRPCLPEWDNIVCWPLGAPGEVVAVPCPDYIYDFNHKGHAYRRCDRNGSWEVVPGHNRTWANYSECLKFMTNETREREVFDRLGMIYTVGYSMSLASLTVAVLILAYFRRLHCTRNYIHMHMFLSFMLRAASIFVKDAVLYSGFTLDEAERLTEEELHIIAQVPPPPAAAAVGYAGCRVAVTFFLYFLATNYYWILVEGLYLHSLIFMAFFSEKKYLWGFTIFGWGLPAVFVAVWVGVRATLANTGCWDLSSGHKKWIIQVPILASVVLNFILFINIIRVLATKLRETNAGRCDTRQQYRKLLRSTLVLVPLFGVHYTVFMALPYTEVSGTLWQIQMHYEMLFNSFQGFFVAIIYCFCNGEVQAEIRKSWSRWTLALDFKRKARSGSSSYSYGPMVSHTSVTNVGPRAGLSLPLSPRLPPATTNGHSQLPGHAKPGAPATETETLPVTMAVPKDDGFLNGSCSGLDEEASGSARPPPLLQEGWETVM
Description: (§1) In brief, the labeled peptide was dissolved in 0.1% trifluoracetic acid (TFA), applied to a C18 Sep-pak cartridge (Waters Associates, Inc., Milford, Mass.) and eluted with a solution of 60% acetonitrile in 0.1% TFA. After lyophilization, the radioligand then was applied to C18-μBondapak column (3.9 mm×30 cm. Waters Associates) and eluted over 30 min with a linear gradient of 30-50% acetonitrile-0.1% TFA at a flow rate of 2 ml/min.
(§2) COS-7 cells were grown in 15 cm plates in DMEM, 10% heat-inactivated […], 10 mg/L gentamycin until 80-90% confluent. Twenty-four hours after transfection by the DEAE/Dextran method (Sambrook et al., supra), with 1-2 μg of plasmid DNA, the cells were trypsinized and replated in multiwell plastic dishes (16 or 35 mm diameter, Costar, Cambridge, Mass.) at a cell concentration of 5×10^4 cells/cm^2). […] After continuing culture for another 48 h, radiorecepter assays were performed. The culture medium was replaced with buffer containing 50 mM Tris-HCL (pH 7.7), 100 mM NaCl, 2 mM CaCl2, 5 mM KCL, 0.5% heat-inactivated fetal bovine serum (GIBCO), and 5% heat-inactivated horse serum (KC Biological Inc., Lenexa, Kans.) immediately before studies were initiated.
(§3) Incubations were terminated by aspirating the buffer, and repeatedly (×3) washing the culture dishes, containing the adherent cells with chilled 0.9% NaCl solution, over a 15 sec period. Cell-bound radioactivity was recovered by the sequential addition (×3) of 1 N NaOH (200 μl) to each well. After 30 min at room temperature, the NaOH was transferred to a glass tube. A second and third extraction with 1 N NaOH (200 μl) were combined with the first, and the total radioactivity was counted in a γ-spectrometer (Packard Instruments, Downers Grove, Ill.).

[2] = molecular target: T2, opossum kidney PTH/PTHrP receptor clone, OK-H (Didelphis virginiana, UniProt P25107, I132F/S86P); assay: Radioreceptor assay, COS cells expressing OK-H; details: FIG. 9
T2 construct: expressed in transfected cells; host or cells: COS cells, transient, plasmid OK-H (pcDNA I)
Description: as §1, §2, §3

[3] = molecular target: T3, opossum kidney PTH/PTHrp receptor clone, OK-O (Didelphis virginiana, UniProt P25107, I132F/S86P); assay: Radioreceptor assay, COS cells expressing OK-O; details: FIG. 11
T3 construct: expressed in transfected cells; host or cells: COS cells, transient, plasmid OK-O (pcDNA I)
Description: [Nle^8,Nle^18,Tyr^34]bPTH-(1-34)amide (NlePTH), and [Tyr^36]PTHrP(1-36)amide(PTHrP) were iodinated with Na^125I (carrier free, New England Nuclear, Boston, Mass.) as previously reported (Segre et al., J. Biol. Chem. 254: 6980, 1979), and purified by reverse-phase HPLC. In brief, the labeled peptide was dissolved in 0.1% trifluoracetic acid (TFA), applied to a C18 Sep-pak cartridge (Waters Associates, Inc., Milford, Mass.) and eluted with a solution of 60% acetonitrile in 0.1% TFA. After lyophilization, the radioligand then was applied to C18-μBondapak column (3.9 mm×30 cm. Waters Associates) and eluted over 30 min with a linear gradient of 30-50% acetonitrile-0.1% TFA at a flow rate of 2 ml/min. The radioligand eluted in two peaks; the first peak, which eluted at approximately 38% acetonitrile, was used in these studies because it gave higher total and specific bindings. The specific activity was 500±75 mCi/mg, which corresponds to an average iodine-peptide ratio of 1.
COS-7 cells were grown in 15 cm plates in DMEM, 10% heat-inactivated […], 10 mg/L gentamycin until 80-90% confluent. Twenty-four hours after transfection by the DEAE/Dextran method (Sambrook et al., supra), with 1-2 μg of plasmid DNA, the cells were trypsinized and replated in multiwell plastic dishes (16 or 35 mm diameter, Costar, Cambridge, Mass.) at a cell concentration of 5×10^4 cells/cm^2). Cell number increased only slightly after transfection. After continuing culture for another 48 h, radiorecepter assays were performed. […]
as §3, with “After 30 min at room temperature, the NaOH was transferred to a glass tube.” left out, “Ill.). […]” for “Ill.).”

[4] = molecular target: T4, human kidney PTH/PTHrP receptor (Homo sapiens, UniProt Q03431, L389Q); assay: Radioreceptor assay, COS-7 cells transiently expressing human kidney PTH/PTHrP receptor (HKrk); details: human versus rat receptor
T4 construct: The full-length human kidney PTH/PTHrP receptor cDNA, HKrk, was constructed using the BamHI/PvuII fragment of PCR clone #2 and HK-2; expressed in transfected cells; host or cells: COS-7 cells, transient (DEAE/Dextran), pcDNAI
T4 sequence (Q03431 27-593 L389Q): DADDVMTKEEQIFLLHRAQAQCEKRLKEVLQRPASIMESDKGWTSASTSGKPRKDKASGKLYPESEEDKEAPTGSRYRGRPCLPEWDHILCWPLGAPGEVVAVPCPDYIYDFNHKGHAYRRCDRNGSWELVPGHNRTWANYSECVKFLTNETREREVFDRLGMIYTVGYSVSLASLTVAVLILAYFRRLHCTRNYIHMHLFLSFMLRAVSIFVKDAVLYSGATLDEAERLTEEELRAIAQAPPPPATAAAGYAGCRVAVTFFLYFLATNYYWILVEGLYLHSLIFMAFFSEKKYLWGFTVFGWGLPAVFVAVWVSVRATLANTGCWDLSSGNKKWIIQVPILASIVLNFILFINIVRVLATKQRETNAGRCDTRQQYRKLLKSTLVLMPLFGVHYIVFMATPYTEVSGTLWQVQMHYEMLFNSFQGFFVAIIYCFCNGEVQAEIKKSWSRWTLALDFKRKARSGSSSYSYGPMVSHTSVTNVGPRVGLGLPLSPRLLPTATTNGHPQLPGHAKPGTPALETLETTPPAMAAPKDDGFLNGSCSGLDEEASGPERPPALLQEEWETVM
Description: as §1, §2, §3

T3 sequence (P25107 27-585 S86P/I132F): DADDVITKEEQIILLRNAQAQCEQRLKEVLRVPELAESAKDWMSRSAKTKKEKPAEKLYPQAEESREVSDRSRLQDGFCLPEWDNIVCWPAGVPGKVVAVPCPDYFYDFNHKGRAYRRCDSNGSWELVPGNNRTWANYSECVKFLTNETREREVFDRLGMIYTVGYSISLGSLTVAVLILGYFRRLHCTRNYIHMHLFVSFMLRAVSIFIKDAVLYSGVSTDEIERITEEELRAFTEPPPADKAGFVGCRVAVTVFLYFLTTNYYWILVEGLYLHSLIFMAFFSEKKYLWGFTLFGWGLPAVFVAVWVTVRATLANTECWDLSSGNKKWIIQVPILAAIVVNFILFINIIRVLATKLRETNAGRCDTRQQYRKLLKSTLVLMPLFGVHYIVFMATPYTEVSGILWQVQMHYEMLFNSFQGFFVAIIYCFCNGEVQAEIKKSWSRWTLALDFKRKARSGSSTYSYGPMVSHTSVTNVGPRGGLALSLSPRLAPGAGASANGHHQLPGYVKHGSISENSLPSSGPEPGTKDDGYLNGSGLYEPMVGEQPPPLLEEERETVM
T2 sequence (P25107 other isoform, or with tags, fused parts or gaps S86P/I132F): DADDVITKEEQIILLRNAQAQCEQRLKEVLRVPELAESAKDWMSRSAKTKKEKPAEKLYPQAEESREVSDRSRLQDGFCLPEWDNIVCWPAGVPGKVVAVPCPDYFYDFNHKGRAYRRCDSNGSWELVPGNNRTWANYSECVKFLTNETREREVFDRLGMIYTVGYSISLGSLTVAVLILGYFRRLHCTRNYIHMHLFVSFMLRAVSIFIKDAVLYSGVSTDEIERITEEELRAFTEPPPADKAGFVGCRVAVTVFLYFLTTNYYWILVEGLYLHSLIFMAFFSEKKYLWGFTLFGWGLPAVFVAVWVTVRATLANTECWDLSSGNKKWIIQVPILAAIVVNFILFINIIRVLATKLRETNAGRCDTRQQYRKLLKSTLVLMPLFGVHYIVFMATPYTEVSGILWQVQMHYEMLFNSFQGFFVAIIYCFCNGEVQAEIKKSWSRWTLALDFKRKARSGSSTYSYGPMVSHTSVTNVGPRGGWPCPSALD

With [Nle^8,18, Tyr^34]bPTH(7-34)amide the “inhibition of 125I-PTHrP binding by competitor” value (shortened to “inhibition of 125I-PTHrP binding”) [1] was “inhibited”, the “inhibition of 125I-PTHrP binding” value [2] was “inhibited” and the “inhibition of 125I-PTHrP binding” value [3] was “inhibited”.
In the case of [Nle^8,18, Tyr^34]bPTH(3-34)amide, the “fold higher affinity with expressed HKrK than with R15B” value [4] is reported as 7 fold, the “inhibition of 125I-PTHrP binding” value [1] is reported as “inhibited” and the “inhibition of 125I-PTHrP binding” value [2] is reported as “inhibited”. For the same substance, the “inhibition of 125I-PTHrP binding” value [3] was “inhibited”.
